Assay results published in patent US20090076067A1, “PHARMACEUTICAL COMPOSITION COMPRISING AZARHODACYANINE COMPOUND AS ACTIVE INGREDIENT” (priority 2005, published 2009).
Values after ≈ are worked out from the molar mass of the structure shown. Read-outs that look alike come from different tables or passages of the source.

How the values were obtained:
[1] = tested on: Trypanosoma cruzi (Tulahuen C2C4 strain); assay: American trypanosoma protozoa proliferation inhibition screening test; assay type: cell-based; details: Tulahuen C2C4 strain in rat L6 cells, 96 hours, CPRG/Nonidet
Protocol: In this experiment, amastigote and trypomastigote of Trypanosoma cruzi (Tulahuen C2C4 strain) infected to rat L6 cells were used. The medium used in the experiment was prepared as follows: to RPMI 1640 medium containing L6 cells, L-glutamine (200 mM) and fetal bovine serum was added to achieve concentration of 1% and 10%, respectively. The culture was conducted under CO2 concentration 5% and temperature 37° C.
Either the compound of the invention or a positive control (benznidazole) was dissolved into DMSO to prepare test solution having predefined concentration. To each well in a 96-well culture plate, medium containing 5×10^3 protozoa was added and precultured for 48 hours. After replacing the medium, either the test solution containing compound of the invention in predefined concentration or DMSO without compound was added. The test solution was duplicated.
The plate was cultured in an incubator for 96 hours, and the proliferation inhibition activity was examined. The activity was determined as follows. To each well, 50 μL CPRG/Nonidet was added, then left for 2 to 6 hours. Then the culture plate was mounted on an absorption microplate reader to determine absorption at 540 nm. The trypanosoma infection rate of the sample containing the test compound and that of the control sample was calculated.
(§1) Using the protozoa infection rate thus obtained, the proliferation inhibition rate was calculated according to the following equation to determine 50% proliferation inhibition concentration (EC50).
(§2) Proliferation inhibition rate(%)={1−(b−a)/(c−a)}×100
(§3) a: initial infection rate b: infection rate of the test compound solution c: infection rate of the control

[2] = tested on: Plasmodium Falciparum k1 strain; assay: Chloroquine-resistant tropical malaria protozoa proliferation inhibition screening test; assay type: cell-based; details: for Selective toxicity: EC50 rat L6 cells / EC50 Chloroquine-resistant malaria protozoa; for EC50: Plasmodium falciparum
Protocol: In this experiment, Plasmodium Falciparum k1 strain protozoa were used. The medium used in the experiment was filter-sterilized RPMI-1640 medium. To the medium human serum was added to achieve 5% concentration. The protozoa was cultured under condition of O2 concentration 3%, CO2 concentration 4%, N2 concentration 93%, and temperature 37° C.
The cultured malaria infected red blood cells were collected by centrifugation, diluted with non-infected red blood cells, to achieve initial infection rate 0.15%. The hematocrit was 2.5%.
To each well in a 96-well culture plate, 200 μL malaria infected culture was added, and either test solution containing test compound at predefined concentration or DMSO having no test compound was added. Each test solution was prepared in duplicate. After 48 hours culture under 37° C., hypoxanthine labeled with radioactive tritium (^3H) of 0.5 μCi was added to each well. After culturing under same condition for 24 hours, the product was collected on a glass fiber filter and washed. The intensity of radiation was measured by Beta plate liquid scintillation counter (Wallac Inc.), to determine malaria protozoa infection rate in test compound samples and control samples.
Using the malaria protozoa infection rate, the proliferation inhibition rate was calculated according to the following equation to determine 50% proliferation inhibition concentration (EC50).
as §2
(§4) a: initial infection rate b: infection rate of test compound solution c: infection rate of the control

[3] = tested on: Rat-derived L6 cells (rat skeletal myoblast cell); assay: Rat L6 cell proliferation inhibition test; assay type: cell-based; details: Alamar Blue
Protocol: (§5) Rat-derived L6 cells (rat skeletal myoblast cell) were used for this test. […] The sample was cultured under CO2 concentration 5% and temperature 37° C. Either the composition of the invention or control was dissolved into DMSO, to prepare test solutions having predefined concentration.
(§6) The samples were precultured until logarithmic growth phase was reached. Then the culture was transferred to each well in a 96-well culture plate, and either test solution containing test compound at predefined concentration or DSMO without compound was added. The test solution was duplicated.
(§7) The plate was cultured in an incubator for 72 hours, to examine proliferation inhibition activity. The activity was examined as follows. Alamar Blue water solution 10 μL was added to each well, and culture was continued for 2 hours. Next, the culture plate was mounted on a fluorescence microplate reader (Spectramax Gemeni XS; Molecular Devices Corporation, U.S.), and irradiated with excitation wavelength 536 nm to determine fluorescence at 588 nm. The survival rate of L6 cells in the test solution sample and control sample was calculated.
(§8) Proliferation inhibition rate(%)={(C−A)/(B−A)}×100
(§9) A: Initial cell count B: Cell count in control after 3 days C: Cell count in test solution after 3 days

[4] = tested on: Trypanosoma brucei rhodensiense (STIB 900 strain); assay: African trypanosoma protozoa proliferation inhibition screening test; assay type: cell-based; details: STIB 900 bloodstream form, 72 hours, Alamar blue
Protocol: In this experiment, bloodstream form trypomastigote of Trypanosoma brucei rhodensiense (STIB 900 strain) was used. The medium used in the experiment was prepared as follows: to filter-sterilized MEM medium, 25 mM N-2-hydroxyethylpiperazine-2-ethane sulfonate (HEPES), 1 g/L glucose, 1% MEM nonessential amino acid, 0.2 mM 2-mercaptoethanol, 2 mM pyruvic calcium salt, 0.1 mM hypoxanthine, and 15% heat-treated horse serum were added. The protozoa was cultured under atmosphere of CO2 concentration 5% and temperature 37° C.
Either the compound of the invention or a positive control (melarsoprol) was dissolved into dimethylsulfoxide (DMSO) to prepare test solution having predefined concentration. To each well in a 96-well culture plate, medium containing 8×10^3 protozoa, and either test solution containing the test compound at predefined concentration or DMSO without compound was added. Then medium was added to achieve 100 μL. The test solution was duplicated.
The culture plate was cultured in an incubator for 72 hours, and the proliferation inhibition activity was examined. The activity was determined as follows. To each well, 10 μL Alamar blue water solution was added, then the plate was again cultured for 2 hours. Then the culture plate was mounted on a fluorescence microplate reader (Spectramax Gemeni XS; Molecular Devices Corporation, U.S.), and irradiated with 536 nm excitation wavelength to determine fluorescence at 588 nm. The trypanosoma infection rate of the sample containing the test composition and that of the control sample was calculated.
as §1, §2, §3

[5] = tested on: Plasmodium berghei NK 65 strain; assay: animal or person; assay type: in vivo; details: for Survival days (mean survival days, treatment group minus control group) / Recovery Rate (suppression): dose 25 mg/kg/d intraperitoneally, 4 days; for Recovery Rate (suppression): P. berghei infected ICR mice
Description: For a test to evaluate therapeutic effect of the compound, 4-day suppressive test which is commonly used for in vivo test to evaluate activity of anti-malaria compound was used. In this experiment, rodent malaria protozoa (Plasmodium berghei NK 65 strain) were used. The infected blood was collected from 5-weeks age (SPF) ICR strain male mouse which were infected intraperitoneally and successively cultured. From the caudal vein of the infected mouse, blood was collected to calculate infection rate. After confirming that infection rate was adequately elevated (10% to 20% infection), the malaria infected blood was collected from the heart of the mouse. The infection rate and count of the red blood cells (cells/mL) were calculated. The infected red blood cell was diluted with PBS buffer to achieve […] protozoa per 0.2 mL dose. The infected cells were injected to the caudal vein of uninfected mouse (ICR strain, male, 5-weeks age) to cause infection. Five mice were made into one group, and the test compound was administered in predefined concentration. From 2 hours after infection, the compound was administered every 24 hours for straight 4 days.
The compound of the invention to be used in this test was dissolved in saline (Otsuka Pharmaceutical Co., Ltd.) to obtain test solution of predefined concentration. When the compound was not dissolved in saline, it was dissolved in SSV (saline containing 0.5% sodium=carboxymethyl cellulose, 0.5% benzyl alcohol, 0.4% Tween 80) to prepare test solution. For the control group (non-treatment group), only saline (Otsuka) was administered. Positive controls S-1 to S-5 were dissolved in saline (Otsuka) or SSV in predetermined concentration to prepare test solution. When the compound was not dissolved in saline, it was dissolved in SSV. After measuring weight of each mouse, the dose for each mouse was calculated to achieve 5.0 to 40 mg concentration for weight1 kg.
Five mice were made into one group, and the test compound was administered intraperitoneally at predefined concentration. From 2 hours after infection, the compound was administered every 24 hours for straight 4 days. Subsequent to the 24 hours after last treatment, blood was collected from the tail of the mouse to prepare thin layer smear in order to count malaria protozoa infection in the treatment group and the control group under microscope. The mice showing maximum value and minimum value were excluded from the average calculation (average was calculated for three mice), to determine malaria protozoa infection rate (Parasitemia).
Using malaria protozoa infection rate thus calculated, recovery rate obtained from the test compound (suppression) was determined.
Recovery rate: suppression(%)=(b−a)/b×100 a: Protozoa infection rate in the treatment group b: Protozoa infection rate in the control group Mean survival days: MSD(day)=c−d c: Average days from the initial treatment (date of malaria infection) to the date of death for the treatment group (5 mice) d: Average days from the date of malaria infection to the date of death for the non-treatment (control) group (5 mice) […]
Tables 5 to 7 illustrate the recovery rate (%) and survival days (day) of malaria infected mice treated with intraperitoneal injection of the test compound and the control compound at predefined concentration. The meaning of symbols in the table is as follows.

[6] = Rat L6 cell proliferation inhibition test; assay type: cell-based; details: read-out: EC50 cytotoxicity L6
Protocol: as §5, §6, §7, §8, §9

[7] = tested on: Leishmania donovani (MHOM/ET/67/L82 strain); assay: Leishmania protozoa proliferation inhibition screening test; assay type: cell-based; details: amastigote, 72 hours, Alamar blue
Protocol: In this experiment, Leishmania donovani (MHOM/ET/67/L82 strain) was used. The protozoa were successively cultured in Syrian Golden hamsters to obtain amastigote. The medium used in the experiment was SM medium having heat-treated fetal bovine serum 10% added, and pH prepared to 5.4. The culture was conducted under CO2 concentration 5% and temperature 37° C.
Either the compound of the invention or a positive control (miltefosine) was dissolved into DMSO to prepare test solution having predefined concentration. To each well of a 96-well culture plate, medium containing predetermined number of protozoa was added and the culture was pre-treated. The concentration of amastigote was determined by CASY cell analyze system (Scharfe GMBH Co., Germany). Subsequently, either test solution containing compound of the invention in predefined concentration or DMSO without compound was added. The test solution was duplicated.
The plate was cultured in an incubator for 72 hours, and the proliferation inhibition activity was examined. The activity was determined as follows. To each well, 10 μL Alamar blue aqueous solution was added, then cultured again for 2 hours. Then the culture plate was mounted on a fluorescence microplate reader (Spectramax Gemeni XS; Molecular Devices Corporation, U.S), and irradiated 536 nm excitation wavelength to determine […] at 588 nm. The leishmania infection rate of the sample containing the test compound and that of the control sample was calculated.
as §1, §2, §4

[8] = chloroquine-resistant K1 strain, 3H-hypoxanthine uptake
[9] = chloroquine-resistant K1 strain, 3H-hypoxanthine uptake, read-out: EC50 P. falciparum K1
[10] = L6 cells (rat skeletal myoblasts), Table 1, Alamar Blue

## O=C(Cn1ccnc1[N+](=O)[O-])NCc1ccccc1 [Benznidazole, reference compound]
[1]; Trypanosoma cruzi, read-out: EC50 Trypanosoma cruzi
  EC50: 0.87 µg/mL (≈ 3.34 µM)

## CCn1c(=O)/c(=c2\nc3c(o2)=CC=CN3C)s/c1=C1\S/C(=N\c2scc[n+]2C)N(Cc2ccccc2)C1=O [Compound B-22]
[2]; [8]
  EC50 P. falciparum K1: 0.005 µg/mL
[3]; Table 1, 72 hours
  EC50 cytotoxicity L6: >90 µg/mL
[4]
  EC50 Trypanosoma brucei rhod.: 0.068 µg/mL
[5]
  Survival days (mean survival days, treatment group minus control group): 9.0 days
  Recovery Rate (suppression): 72.4%

## CCn1c(=O)/c(=C2\SCCN2C)s/c1=C1\S/C(=N\c2scc[n+]2C)N(C(C)C)C1=O [Compound B-35]
[2]
  Selective toxicity: 3630
[2]; [9]
  EC50: 0.006 µg/mL
[6]; [10]
  EC50 at 72 h: 21.8 µg/mL
[5]; Plasmodium berghei, ip, 96 h, read-out: Recovery Rate (suppression)
  inhibition in vivo at 25 mg/kg/day: 63.5%
[5]
  Survival days (mean survival days, treatment group minus control group): 3.5 days

## CCCCCCCCCCCCCCCCOP(=O)([O-])OCC[N+](C)(C)C [Miltefosine, reference compound]
[7]; Leishmania donovani, read-out: EC50 Leishmania donovani
  EC50: 0.11 µg/mL (≈ 0.27 µM)

## CCN(CC)CCCC(C)Nc1ccnc2cc(Cl)ccc12 (stereo not shown) [Chloroquine, reference compound]
[2]
  Selective toxicity: 1300
[2]; K1, read-out: EC50 P. falciparum K1
  EC50: 0.047 µg/mL (≈ 0.147 µM)
[6]; Table 1, rat L6 cells, Alamar Blue
  EC50 at 72 h: 60 µg/mL (≈ 188 µM)

## CCN1C(=O)/C(=c2/s/c(=C3/C=CC=CN3C)c(=O)n2CC)S/C1=N\c1sc2cc(F)ccc2[n+]1C [Compound B-32]
[2]; [8]
  EC50 P. falciparum K1: 0.0162 µg/mL
[3]; Table 1, 72 hours
  EC50 cytotoxicity L6: 15.88 µg/mL
[3]; Table 2, 72 hours
  EC50 cytotoxicity L6: 15.88 µg/mL
[3]; Table 4, 72 hours
  EC50 cytotoxicity L6: 15.88 µg/mL
[4]
  EC50 Trypanosoma brucei rhod.: 0.1585 µg/mL
[7]
  EC50 Leishmania donovani: 0.2195 µg/mL
[5]
  Survival days (mean survival days, treatment group minus control group): 4.8 days
  Recovery Rate (suppression): 79.5%

## C=CCN1C(=O)/C(=c2/s/c(=C3/SCCN3C)c(=O)n2CC)S/C1=N\c1sc2cc(Cl)ccc2[n+]1C [Compound B-39]
[3]; Table 2, 72 hours
  EC50 cytotoxicity L6: 3.72 µg/mL
[3]; Table 3, 72 hours
  EC50 cytotoxicity L6: 3.72 µg/mL
[3]; Table 4, 72 hours
  EC50 cytotoxicity L6: 3.72 µg/mL
[4]
  EC50 Trypanosoma brucei rhod.: 0.141 µg/mL
[1]
  EC50 Trypanosoma cruzi: 0.141 µg/mL
[7]
  EC50 Leishmania donovani: 0.049 µg/mL
[5]
  Survival days (mean survival days, treatment group minus control group): 4.5 days
  Recovery Rate (suppression): 77.7%

## CCN1C(=O)/C(=c2\nc3c(s2)=CC=CN3C)S/C1=N\c1cccc[n+]1C.[Cl-] [Compound A-22]
[2]
  Selective toxicity: >782
[2]; [9]
  EC50: 0.0115 µg/mL
[6]; [10]
  EC50 at 72 h: > 90 µg/mL
